Measurements taken from article PMC10934261, “Designing Potent Anti-Cancer Agents: Synthesis and Molecular Docking Studies of Thieno[2,3-d][1,2,4]triazolo[1,5-a]pyrimidine Derivatives” (Molecules, 2024).

Columns and labels:
[1] = tested on: human breast MCF-7 cancer cell line; assay: In vitro cytotoxic screening (MTT assay), MCF-7; type: cell-based; conditions: for Percentage cytotoxicity on MCF-7: average ± standard deviation
[2] = tested on: human colorectal HCT-116 cancer cell line; assay: In vitro cytotoxic screening (MTT assay), HCT-116; type: cell-based; conditions: average ± standard deviation
[3] = tested on: human prostate PC-3 cancer cell line; assay: In vitro cytotoxic screening (MTT assay), PC-3; type: cell-based; conditions: average ± standard deviation
[4] = tested on: human skin normal cell line (BJ-1); assay: Cytotoxicity on normal cells (MTT assay), BJ-1; type: cell-based; conditions: for Percentage cytotoxicity on normal BJ1 human skin fibroblast cell line: average ± standard deviation
Description: It can therefore be concluded that 10b presents a safer cytotoxicity profile than 10e.
The cell lines were obtained from Karolinska Center, Department of Oncology and Pathology, Karolinska Institute and Hospital, Stockholm, Sweden. as follows: human breast MCF-7, colorectal HCT-116 and prostate PC-3 cancer cell lines and human skin normal BJ-1 cell line. Exponentially, cells were cultured at a concentration of 10^4 cells/well for 24 h, afterwards fresh medium containing different concentrations of the tested samples was added. Serial two-fold dilution of the tested samples were added using a multichannel pipette. Moreover, all cells were cultivated at 37 °C, 5% CO2 and 95% humidity. Also, incubation of control cells occurred at 37 °C. […] After rinsing the wells using water until stain free, 30% glacial acetic acid was added to all wells with shaking the plates on a Microplate reader (TECAN, Inc.) to measure the absorbance at a wavelength of 490 nm. The cytotoxicity was estimated by IC50 in μM, which is the concentration that inhibits 50% of growth of cancer cells. […]
1.1. In vitro cytotoxic screening
The cell lines were obtained from Karolinska Center, Department of Oncology and Pathology, Karolinska Institute and Hospital, Stockholm, Sweden. as follows: human breast MCF-7, colorectal HCT-116 and prostate PC-3 cancer cell lines and human skin normal BJ-1 cell line. Exponentially, cells were placed in 10^4 cells/ well for 24 h, and then add fresh medium which containing different concentration of the tested sample. Serial two-fold dilution of the tested sample were added using a multichannel pipette. Moreover, all cells were cultivated at 37 °C, 5% CO2 and 95% humidity. Also, incubation of control cells occurred at 37 °C. […]
Rinse the wells using water until no stain. After that, add 30% glacial acetic acid to all wells with shaking plates on Microplate reader (TECAN, Inc.) to measure the absorbance, using a test wavelength of 490 nm. Besides, compare the treated samples with the control cell. The cytotoxicity was estimated by IC50 in (μ M), the concentration that inhibits 50% of growth of cancer cell. […]
The molecular docking simulation of the promising in vitro screened cyclopenta[4,5]thieno[2,3-d][1,2,4]triazolo[1,5-a]pyrimidin-9(6H)-ones 10b and 10e against EGFR and PI3K was done using the Molecular Operating Environment software (MOE-Dock) version 2014.0901. The co-crystallized structures of EGFR and PI3K kinases complexed with their native ligands, erlotinib and quinolone LXX, were downloaded from the protein data bank (PDB codes: 1M17 and 3L54, respectively). All minimizations were performed using MOE until an RMSD gradient of 0.05 kcal∙mol−1Å−1 with MMFF94x force field and the partial charges were automatically calculated. Preparation of the enzyme structures was done for molecular docking using Protonate 3D protocol with the default options in MOE. London dG scoring function and Triangle Matcher placement method were used in the docking protocol. Initially, the original ligands were re-docked into the active binding site of EGFR and PI3K kinases to assess the root-mean-square deviation values. Then, the docking studies of the newly targeted compounds were estimated within the ATP-binding sites after elimination of the co-crystallized […]
Percentage cytotoxicity of 100 µM of the compounds on human tumor cell lines*

Structure (SMILES): O=c1c2c3c(sc2nc2[nH]c(-c4ccc(Br)cc4)nn12)CCC3 [Compound 10b, 2-(4-Bromophenyl)-7,8-dihydro-3H-cyclopenta[4,5]thieno[2,3-d][1,2,4]triazolo[1,5-a]pyrimidin-9(6H)-one]
- Percentage cytotoxicity on MCF-7 ([1]; 12.5 µM): 30.3±4.3%
- Percentage cytotoxicity on MCF-7 ([1]; 25 µM): 64.4±2.2%
- Percentage cytotoxicity on MCF-7 ([1]; 50 µM): 80.8±2.8%
- Percentage cytotoxicity on MCF-7 ([1]; 100 µM): 86.4±10%
- IC50 ([1]; Homo sapiens, MCF7, MCF-7, 48 h incubation, mean of three values, read-out: IC50 (Mean ± SD) MCF-7): 19.4 ± 0.22 µM
- Percentage cytotoxicity on HCT-116 ([2]; 12.5 µM): 6.2±0.9%
- Percentage cytotoxicity on HCT-116 ([2]; 25 µM): 14.3±1.7%
- Percentage cytotoxicity on HCT-116 ([2]; 50 µM): 15.0±2.5%
- Percentage cytotoxicity on HCT-116 ([2]; 100 µM): 24.4±6.6%
- Percentage cytotoxicity on PC-3 ([3]; 12.5 µM): 10.9±5.2%
- Percentage cytotoxicity on PC-3 ([3]; 25 µM): 18.4±1.7%
- Percentage cytotoxicity on PC-3 ([3]; 50 µM): 22.1±0.6%
- Percentage cytotoxicity on PC-3 ([3]; 100 µM): 41.4±0.7%
- Percentage cytotoxicity on normal BJ1 human skin fibroblast cell line ([4]; 12.5 µM): 16.8±8.3%
- Percentage cytotoxicity on normal BJ1 human skin fibroblast cell line ([4]; 25 µM): 34.2±7.4%
- Percentage cytotoxicity on normal BJ1 human skin fibroblast cell line ([4]; 50 µM): 34.6±3.8%
- Percentage cytotoxicity on normal BJ1 human skin fibroblast cell line ([4]; 100 µM): 39.3±7.7%
- IC50 ([4]; Homo sapiens, BJ-1 normal skin cells, 48 h incubation, mean of three values, read-out: IC50 (Mean ± SD) BJ-1): 222 ± 30 µM
- melting point: 268 to 270 °C
